Experimental findings from US20260199239A1, “IONIZABLE LIPIDS WITH MALONATE TAILS” (ModernaTX, Inc., priority 2022, published 2026) are described below.

Data set [1] can be described thus: LNP particle size and polydispersity index (PDI). It counts as physicochemical. The settings on record: LNP lipid:PEG-1:DSPC:Cholesterol 48:2:11:39, hEPO mRNA, 20 mM Tris 8% Sucrose pH 7.4. On the procedure: A Zetasizer Nano ZS (Malvern Instruments Ltd, Malvern, Worcestershire, UK) can be used to determine the particle size, the polydispersity index (PDI) and the zeta potential of the nanoparticle compositions in 1×PBS in determining particle size and 15 mM PBS in determining zeta potential.
LNPs may be characterized by a variety of methods. For example, microscopy (e.g., transmission electron microscopy or scanning electron microscopy) may be used to examine the morphology and size distribution of a nanoparticle composition. Dynamic light scattering or potentiometry (e.g., potentiometric titrations) may be used to measure zeta potentials. Dynamic light scattering may also be utilized to determine particle sizes. Instruments such as the Zetasizer Nano ZS (Malvern Instruments Ltd, Malvern, Worcestershire, UK) may also be used to measure multiple characteristics of a nanoparticle composition, such as particle size, polydispersity index, and zeta potential.
(§1) LNPs comprising ionizable lipids described herein were formulated according to Table 2 and the following general procedure.
(§2) General procedure for one-pot LNP formation: Lipid stock solutions in ethanol are mixed with mRNA in 25 mM acetate solution at a 3:1 ratio in a microfluidic mixer. The resulting LNPs, which are at approximately pH 5 and 25% EtOH, are buffer exchanged by dialysis into the storage buffer. The LNP solutions are then concentrated by Amicon® and purified by a 0.2 uM sterile filter.

Data set [2] can be described thus: mRNA encapsulation by the LNP (% EE, total mRNA in TX). It counts as physicochemical. Particulars: LNP lipid:PEG-1:DSPC:Cholesterol 48:2:11:39, hEPO mRNA. On the procedure:
For nanoparticle compositions including an RNA, a QUANT-IT™ RIBOGREEN® RNA assay (Invitrogen Corporation Carlsbad, CA) can be used to evaluate the encapsulation of an RNA by the nanoparticle composition. The samples are diluted to a concentration of approximately 5 μg/mL in a TE buffer solution (10 mM Tris-HCl, 1 mM EDTA, pH 7.5). 50 μL of the diluted samples are transferred to a polystyrene 96 well plate and either 50 μL of TE buffer or 50 μL of a 2% Triton X-100 solution is added to the wells. The plate is incubated at a temperature of 37° C. for 15 minutes. The RIBOGREEN® reagent is diluted 1:100 in TE buffer, and 100 μL of this solution is added to each well. The fluorescence intensity can be measured using a fluorescence plate reader (Wallac Victor 1420 Multilablel Counter; Perkin Elmer, Waltham, MA) at an excitation wavelength of, for example, about 480 nm and an emission wavelength of, for example, about 520 nm. The fluorescence values of the reagent blank are subtracted from that of each of the samples and the percentage of free RNA is determined by dividing the fluorescence intensity of the intact sample (without addition of Triton X-100) by the fluorescence value of the disrupted sample (caused by the addition of Triton X-100).
The efficiency of encapsulation of a therapeutic and/or prophylactic agent describes the amount of therapeutic and/or prophylactic agent that is encapsulated or otherwise associated with an LNP after preparation, relative to the initial amount provided. The encapsulation efficiency is desired to be high (e.g., close to 100%). The encapsulation efficiency may be measured, for example, by comparing the amount of therapeutic and/or prophylactic agent in a solution containing a loaded LNP before and after breaking up the loaded LNP with one or more organic solvents or detergents. Fluorescence may be used to measure the amount of free therapeutic and/or prophylactic agent (e.g., RNA) in a solution. For the loaded LNPs formulated with lipids of the disclosure, the encapsulation efficiency of a therapeutic and/or prophylactic agent is at least 50%, for example 50%, 55%, 60%, 65%, 70%, 75%, 80%, 85%, 90%, 91%, 92%, 93%, 94%, 95%, 96%, 97%, 98%, 99%, or 100%. In some embodiments, the encapsulation efficiency is at least 80%. In some embodiments, the encapsulation efficiency is at least 90%. In some embodiments, the encapsulation efficiency of the therapeutic and/or prophylactic agent is between 80% and 100%.
as §1, §2

Data set [3] can be described thus: Osmolality of LNP formulation. It counts as physicochemical. Particulars: LNP formulation in 20 mM Tris 8% Sucrose storage buffer.
Source text: as §1

The subject of a further data set is hEPO protein expression. The experiment in a line: hEPO protein expression in vivo after systemic administration of LNPs. On the procedure: In order to monitor how effectively various nanoparticle compositions deliver therapeutic and/or prophylactic agents to targeted cells, different nanoparticle compositions including a particular therapeutic and/or prophylactic agent (for example, a modified or naturally occurring RNA such as an mRNA) are prepared and administered to animal populations. Animals (e.g., mice, rats, or non-human primates) are intravenously, intramuscularly, intraarterially, or intratumorally administered a single dose including a nanoparticle composition comprising a lipid of the disclosure and an mRNA expressing a protein, e.g., human erythropoietin (hEPO) or luciferase. A control composition including PBS may also be employed.
Upon administration of nanoparticle compositions to an animal, dose delivery profiles, dose responses, and toxicity of particular formulations and doses thereof can be measured by enzyme-linked immunosorbent assays (ELISA), bioluminescent imaging, or other methods. For nanoparticle compositions including mRNA, time courses of protein expression can also be evaluated. Samples collected from the animals for evaluation may include blood, sera, and tissue (for example, muscle tissue from the site of an intramuscular injection and internal tissue); sample collection may involve sacrifice of the animals.
ELISA test kits may provide hEPO concentrations in milli International Units per mL (mIU/mL), e.g., per mL of tested serum. Typically, the EPO concentration of unknown sample is calculated from a calibration curve. Standards (used for the calibration curve) are calibrated according to the 2. IRP WHO preparation. In some embodiments, mIU/mL corresponds to […]. Nanoparticle compositions including mRNA are useful in the evaluation of the efficacy and usefulness of various formulations for the delivery of therapeutic and/or prophylactic agents. Higher levels of protein expression induced by administration of a composition including an mRNA will be indicative of higher mRNA translation and/or nanoparticle composition mRNA delivery efficiencies. As the non-RNA components are not thought to affect translational machineries themselves, a higher level of protein expression is likely indicative of a higher efficiency of delivery of the therapeutic and/or prophylactic agent by a given nanoparticle composition relative to other nanoparticle compositions or the absence thereof.
In some embodiments, an in vivo expression assay may be used to assess potency of expression of lipids of the disclosure. In some embodiments, the protein expression (hEPO) may be measured in mice following administration of a nanoparticle comprising a lipid of the disclosure (e.g., a loaded LNP). In some embodiments, lipid nanoparticles of the instant disclosure may be intravenously administered to mice (e.g., CD-1 mice).
In some embodiments, the concentration of hEPO in serum may be tested after administration (e.g., about six hours after injection). In some embodiments, residual levels of the lipids of the disclosure in organs or tissue of the subject after administration (e.g., 6 h, 12 h, 18 h, 24 h, 36h, or 48 h after administration) are measured. In some embodiments, the residual levels of the lipids of the disclosure in the liver are measured. In some embodiments, an in vitro expression assay may be used to assess nanoparticles of the disclosure. In some embodiments, cells (e.g., HeLa) may be plated in an imaging plate (e.g., poly-D-lysine coated) and cultured in serum (e.g., human serum, mouse serum, cynomolgus monkey serum or fetal bovine serum). In some embodiments, lipid nanoparticles of the disclosure comprising an mRNA expressing fluorescent protein (e.g., green fluorescent protein (GFP)) and a fluorescent lipid (e.g., rhodamine-DOPE) may be added to the plate and the plate imaged for uptake and expression. In some embodiments, expression may be evaluated by measuring fluorescence (e.g., from GFP). […]

A short description of data set [4]: Endotoxin content of LNP formulation. The settings on record: LNP lipid:PEG-1:DSPC:Cholesterol 48:2:11:39, hEPO mRNA.
Source text: as §1

The nature of the next data set: pH of LNP formulation. It is filed as physicochemical. Particulars: LNP formulation in 20 mM Tris 8% Sucrose storage buffer.
Source text: as §1

[5] abbreviates: Table 3A groups 1-8, ratio to L5 LNP.
Setting [6] is: Table 3B groups 1A-8A, ratio to L5 LNP.

Where “and” joins values, the source holds several entries; their conditions need not be identical. Equal values may be shown once.

For `CCCCCCCCC(CCCCCCCC)OC(=O)CCCCCCCN(CCCCCCCC(=O)OCCC(CCCC)CCCC)CCCNS(=O)(=O)CC` [Compound L2, reference compound], in data set [1], the PDI turned out to be 0.177 and the “Size (nm)” value is 60.7 nm. Also, in data set [2], the “% EE” value was 95.8%. Also, the “Osmolality (mOsm/kg)” value in data set [3] was determined as 315 mOsm/kg. In the data set on hEPO protein expression (setting [5]), the “6 hr protein expression ratio cf. L5” value is listed as 0.7 and the “24 hr protein expression ratio cf. L5” value is 0.8.
For `CCCCCCCCCOC(=O)CCCCCCCN(CCO)CCCCCCCC(=O)OC(CCCCCCCC)CCCCCCCC` [Compound L4, reference compound], the “Size (nm)” value in data set [1] was 74.9 nm and 104.5 nm. In addition, the “% EE” value in data set [2] is 94.8% and 92.6%. Besides, in data set [4], the “Endotoxin (EU/mL)” value amounted to 2.3 EU/mL. Moreover, in the data set “pH of LNP formulation”, the pH is 7.444. In data set [3], the “Osmolality (mOsm/kg)” value is 317 mOsm/kg and 311 mOsm/kg. In addition, in the data set on hEPO protein expression (setting [5]), the “6 hr protein expression ratio cf. L5” value turned out to be 0.1 and the “24 hr protein expression ratio cf. L5” value came out at 0.1. In the data set on hEPO protein expression (setting [6]), the “6 hr protein expression ratio cf. L5” value was 0.08 and the “24 hr protein expression ratio cf. L5” value was 0.07.
Regarding `CCCCCCCCC(CC)OC(=O)CCCCCCCN(CCCCCCCC(=O)OC(CCCCCCCC)CCCCCCCC)CCCNc1c(NC)c(=O)c1=O` (centres unmarked) [Compound L5, reference compound], in data set [1], the PDI was 0.117 and 0.119; the “Size (nm)” value was 60.4 nm and 59.9 nm. Also, the “% EE” value in data set [2] is 95.2% and 96.1%. Further, the “Endotoxin (EU/mL)” value in data set [4] is 2 EU/mL. The same compound gave a pH in the data set “pH of LNP formulation” of 7.456. The “Osmolality (mOsm/kg)” value in data set [3] is 313 mOsm/kg and 320 mOsm/kg. For the same compound, in the data set on hEPO protein expression (setting [5]), the “6 hr protein expression ratio cf. L5” value is recorded as 1.0 and the “24 hr protein expression ratio cf. L5” value is 1.0. In addition, in the data set with hEPO protein expression (setting [6]), the “6 hr protein expression ratio cf. L5” value is 1.00 and the “24 hr protein expression ratio cf. L5” value is 1.00.
For the compound `CCCCCCCCC(CCCCCCCC)OC(=O)CCCCCCCN(CCO)CCCCCCCC(=O)OCCC(CCCC)CCCC` [Compound L6, reference compound], in data set [1], the PDI stood at 0.166 and the “Size (nm)” value amounted to 58.2 nm. In data set [2], the “% EE” value was 96.9%. Also, the “Endotoxin (EU/mL)” value in data set [4] was 2.3 EU/mL. For the same compound, in “pH of LNP formulation”, the pH is given as 7.468. In addition, the “Osmolality (mOsm/kg)” value in data set [3] was found to be 321 mOsm/kg. In addition, in the data set on hEPO protein expression (setting [6]), the “6 hr protein expression ratio cf. L5” value was 0.94 and the “24 hr protein expression ratio cf. L5” value came out at 0.84.
Take `CCCCCCCCC(CCCCCCCC)OC(=O)CCCCCCCN(CCO)CCCCCCC(C(=O)OCCCCCC)C(=O)OCCCCCC` [Compound M1, Dihexyl 2-(6-((8-(heptadecan-9-yloxy)-8-oxooctyl)(2-hydroxyethyl)amino)hexyl)malonate]: in data set [1], the PDI is 0.164 and 0.128; the “Size (nm)” value is 57.0 nm and 58.7 nm. Besides, the “% EE” value in data set [2] is 96.9% and 94.1%. For the same compound, the “Endotoxin (EU/mL)” value in data set [4] came out at 2.4 EU/mL. In addition, the pH in the data set “pH of LNP formulation” came out at 7.452. In addition, the “Osmolality (mOsm/kg)” value in data set [3] was 314 mOsm/kg and 320 mOsm/kg. Besides, in the data set with hEPO protein expression (setting [5]), the “6 hr protein expression ratio cf. L5” value came out at 0.9 and the “24 hr protein expression ratio cf. L5” value worked out at 0.9. In the data set on hEPO protein expression (setting [6]), the “6 hr protein expression ratio cf. L5” value worked out at 1.70 and the “24 hr protein expression ratio cf. L5” value is 1.46.
`CCCCCCCCOC(=O)C(CCCCCCN(CCO)CCCCCCCC(=O)OC(CCCCCCCC)CCCCCCCC)C(=O)OCCCCCCCC` [Compound M2, Dioctyl 2-(6-((8-(heptadecan-9-yloxy)-8-oxooctyl)(2-hydroxyethyl)amino)hexyl)malonate]: in data set [1], the PDI came to 0.186 and the “Size (nm)” value worked out at 58.0 nm. Also, the “% EE” value in data set [2] is on record as 97.9%. For the same compound, the “Osmolality (mOsm/kg)” value in data set [3] was 315 mOsm/kg. Besides, in the data set with hEPO protein expression (setting [5]), the “6 hr protein expression ratio cf. L5” value stood at 0.3 and the “24 hr protein expression ratio cf. L5” value was 0.3.
For `CCCCCCCCC(CCCCCCCC)OC(=O)CCCCCCCN(CCCCCCC(C(=O)OCCCCCC)C(=O)OCCCCCC)CCCNc1c(NC)c(=O)c1=O` [Compound M3, Dihexyl 2-(6-((8-(heptadecan-9-yloxy)-8-oxooctyl)(3-((2-(methylamino)-3,4-dioxocyclobut-1-en-1-yl)amino)propyl)amino)hexyl)malonate], in data set [1], the PDI is 0.148 and 0.132; the “Size (nm)” value is 59.3 nm and 59.1 nm. Also, the “% EE” value in data set [2] was 97.8% and 98.3%. Besides, the “Endotoxin (EU/mL)” value in data set [4] was found to be 2 EU/mL. The compound also had a pH in “pH of LNP formulation” of 7.155. For the same compound, the “Osmolality (mOsm/kg)” value in data set [3] is 317 mOsm/kg and 318 mOsm/kg. In the data set on hEPO protein expression (setting [5]), the “6 hr protein expression ratio cf. L5” value worked out at 1.0 and the “24 hr protein expression ratio cf. L5” value amounted to 1.2. In the data set with hEPO protein expression (setting [6]), the “6 hr protein expression ratio cf. L5” value is 2.53 and the “24 hr protein expression ratio cf. L5” value turned out to be 2.42.
